The values that follow come from paper PMC11524583, “Neurons enhance blood–brain barrier function via upregulating claudin-5 and VE-cadherin expression due to glial cell line-derived neurotrophic factor secretion” (eLife, 2024).

Where two headings read alike, the source gives them in different places. Marks after values point to notes of the source that are not given here.

The test system of series [1] is hCMEC/D3 mono-culture BBB model. Particulars: human; for PS: 30 min.
The subject of series [2] is triple co-culture BBB model (hCMEC/D3, U251 and SH-SY5Y cells). Particulars: human, 30 min.
Series [3] is described as follows: in vitro. The note with it: human, Papp, Mono.
Series [4] can be described thus: in vitro. Particulars: human, Papp, Triple.
The conditions of series [5]: unbound fraction in brain, cited from earlier work.
The conditions of series [6]: in situ brain perfusion in rodents; published permeability multiplied by VSA 150 cm^2/g; ref Summerfield et al., 2007; cited from earlier work.
The next series relates to claudin-5. Description: Western blot of claudin-5 expression in hCMEC/D3 cells. Type of series: cell-based, Homo sapiens. Particulars: for GDNF-induced claudin-5 expression: 200 pg/ml GDNF, 3 μM SPP-86, 5 μM PP2, 3 μM LY294002, 2 μM U0126, 5 μM SP600125, 2 μM SB203580; for GDNF-induced claudin-5 expression / US-CM-induced claudin-5 expression: anti-GDNF antibody 0.25, 0.5, 1.0 μg/ml; for US-CM-induced claudin-5 expression: 3 μM SPP-86, 5 μM PP2, 3 μM LY294002, 2 μM U0126. Here is the method: (§1) Whole-cell and tissue lysates, nucleoprotein, and cytoplasmic protein were prepared using RIPA Lysis Buffer (Beyotime, Shanghai, China) as the described method ([Wu et al., 2021]). Proteins were separated through sodium dodecyl sulfate–polyacrylamide gel electrophoresis and transferred onto nitrocellulose or polyvinylidene difluoride membranes. The membranes were blocked with 5% skim milk and incubated with corresponding primary antibodies at 4°C overnight. After being washed with Tris-buffered saline Tween buffer, the membranes were incubated with secondary antibodies (Cell Signaling Technology, MA, USA) at 1:3000 dilution: Anti-mouse IgG, HRP-linked Antibody (#7076), Anti-rabbit IgG, HRP-linked Antibody (#7074). Protein levels were visualized using a highly sensitive ECL western blotting substrate and a gel imaging system (Tanon Science & Technology, Shanghai, China).
(§2) CM of U251 cells (U-CM), SH-SY5Y cells (S-CM), or co-culture of U251 and SH-SY5Y cells (US-CM) was prepared. U251 cells were seeded at the top of the insert membrane and suspended on 6-well plates seeded with differentiated SH-SY5Y cells to co-culture U251 cells with SH-SY5Y cells. The medium was collected every 24 hr. The CMs were subsequently used for hCMEC/D3 cell culture after filtrating with 0.2 μm filters for 144 hr. The levels of GDNF, bFGF, IGF-1, and TGF-β in CMs were measured using corresponding ELISA kits according to the manufacturers’ instructions.
(§3) Exogenous and endogenous GDNF in the medium was neutralized with anti-GDNF antibody (#AF-212-NA, R&D system, Minneapolis, MN, USA). 0.25, 0.5, and 1.0 μg/ml anti-GDNF antibody was added into the US-CM or medium containing 200 pg/ml GDNF, and then the medium was preincubated at 4°C for 1 hr. The hCMEC/D3 cells were incubated with 200 pg/ml GDNF or US-CM containing anti-GDNF antibody or not for 6 days, and then cell lysate was collected for western blot. The medium was replaced every 24 hr.
(§4) Here, hCMEC/D3 cells were plated in the plates or culture dishes at 6 × 10^4 cells/cm^2 and transfected with 10 nM of negative control or human FOXO1, ETS1, and CDH5 siRNA (Tsingke Biotechnology, Beijing, China) for 12 hr using Lipofectamine 3000 (Invitrogen, Carlsbad, CA, USA) reagent according to the manufacturer’s instructions. Cells were then incubated with a medium containing GDNF for 72 hr.
(§5) The plasmids encoding FOXO1 (EX-Z7404-M02) were constructed by GeneCopoeia (Rockville, MD, USA). The hCMEC/D3 cells were plated in plates or dishes at 6 × 10^4 cells/cm^2. They were subsequently transfected with 1 µg of negative control or plasmids encoding FOXO1 6 hr using Lipofectamine 3000 reagent according to the manufacturer’s instructions. Transfected cells were then incubated with the medium containing GDNF for 72 hr.
In general terms: Immunoblotting shows a protein as a band on a membrane.

The subject of a further series is VE-cadherin. Nature of the series: Western blot of VE-cadherin expression in hCMEC/D3 cells. It counts as cell-based, Homo sapiens. Particulars: for GDNF-induced VE-cadherin expression / US-CM-induced VE-cadherin expression: hCMEC/D3 cells, anti-GDNF antibody 0.25, 0.5, 1.0 μg/ml; for GDNF-induced VE-cadherin expression: 200 pg/ml GDNF, 3 μM SPP-86, 5 μM PP2, 3 μM LY294002, 2 μM U0126, 5 μM SP600125, 2 μM SB203580; for US-CM-induced VE-cadherin expression: 3 μM SPP-86, 5 μM PP2, 3 μM LY294002, 2 μM U0126. As for the experimental part:
as §1, §2, §3, §4

The next series deals with p-AKT/AKT. Nature of the series: Western blot of p-AKT/AKT in hCMEC/D3 cells. The note with it: hCMEC/D3 cells, US-CM; 3 μM LY294002 or anti-GDNF antibody. Type of series: cell-based, Homo sapiens. Here is the method:
as §1, §3

Another series has as its system FOXO1. Description: Western blot of FOXO1 (p-FOXO1/FOXO1, total, cytoplasmic, nuclear) in hCMEC/D3 cells. It counts as cell-based, Homo sapiens. Particulars: hCMEC/D3 cells; LY294002 or U0126. As for the experimental part: as §1, §4, §5
Another series relates to ETS1. Description: Western blot of total and nuclear ETS1 in hCMEC/D3 cells. Type of series: cell-based, Homo sapiens. The note with it: hCMEC/D3 cells, 200 pg/ml GDNF; LY294002 or U0126. As for the experimental part: as §1, §4
A further series has as its system p-ERK/ERK. Description: Western blot of p-ERK/ERK in hCMEC/D3 cells. It counts as cell-based, Homo sapiens. The note with it: hCMEC/D3 cells, US-CM; 2 μM U0126 or anti-GDNF antibody. As for the experimental part: as §1, §3
A further series relates to hCMEC/D3 cells. Description: EdU incorporation assay. Type of series: cell-based, Homo sapiens. Particulars: for EdU incorporation, EdU + fraction / EdU incorporation, EdU − fraction: 6 days. Here is the method: The cells were incubated with medium containing 10 μM Edu for 2 hr. […] The EdU incorporation assay was measured using the BeyoClick EdU Cell Proliferation Kit (Beyotime Biotechnology, Shanghai, China) according to the manufacturer’s instructions. The samples were determined on the FACSCelesta flow cytometer (Becton, Dickins on and Company, USA), and data were analyzed by Flowjo 10.4 software.

Setting [7] is: hCMEC/D3 cells incubated with conditioned medium or neurotrophic factor vs normal medium.

One may read the Papp A→B as how fast a substance crosses the layer from the apical side. The low end stands for slow passage, the high end for fast passage. In the case of `NC(=O)N1c2ccccc2C=Cc2ccccc21` [Carbamazepine], in series [1], the “PSPre, Mono” value was determined as 2666.89 µL/min/g. Besides, the results for the PS in series [1] and in series [2] were 2666.89 µL/min/g and 908.69 µL/min/g, respectively. The results for the Papp A→B at 30 min in the series “in vitro [3]” and in “in vitro [4]” were 34.4 ± 1.26 ×10⁻⁶ cm/s and 11.7 ± 0.15 ×10⁻⁶ cm/s, respectively. Further, the “fu, brain” value in series [5] (ref Maurer et al., 2005) is recorded as 0.116^¶. Moreover, in [6], the PSObs is given as 959.40^† μl/min/g.

On to `O=c1cc(N2CCOCC2)oc2c(-c3ccccc3)cccc12` [LY294002, reference compound], for which, in the series with claudin-5 (hCMEC/D3 cells), the “GDNF-induced claudin-5 expression” value was “significantly suppressed” and the “US-CM-induced claudin-5 expression” value is reported as “markedly reversed”. In the series on claudin-5 (hCMEC/D3 cells, LY294002), the “upregulation of claudin-5 expression induced by FOXO1 siRNA and GDNF” value is listed as “reversed”. Also, in the series on VE-cadherin, the “GDNF-induced VE-cadherin expression” value is given as “significantly suppressed” and the “US-CM-induced VE-cadherin expression” value is “markedly reversed”. The “US-CM-induced p-AKT” value in the series on p-AKT/AKT is “markedly reversed”. Also, in the series with FOXO1, the “GDNF-induced alterations in total p-FOXO1, cytoplasmic p-FOXO1, cytoplasmic FOXO1, and nuclear FOXO1” value is given as “significantly reversed”. Also, in the series with ETS1, the “GDNF-induced nuclear ETS1 expression” value is given as “markedly attenuated” and the “GDNF-induced total ETS1 expression” value is “markedly attenuated”.

For the compound `CN1CCN2c3ncccc3Cc3ccccc3C2C1` (stereo not drawn) [Mirtazapine], the “PSPre, Mono” value in [1] amounted to 2637.00 µL/min/g. Moreover, the PS in series [1] came to 2637.00 µL/min/g; in [2], 2009.25 µL/min/g. Also, the Papp A→B at 30 min in “in vitro [3]” amounted to 23.4 ± 0.44 ×10⁻⁶ cm/s; in “in vitro [4]”, 17.9 ± 0.21 ×10⁻⁶ cm/s. Further, the “fu, brain” value in series [5] (ref Summerfield et al., 2007) is 0.08^†. The PSObs in series [6] was 1912.50^† μl/min/g.

`N#CC(=C(/N)Sc1ccccc1N)/C(C#N)=C(/N)Sc1ccccc1N` [U0126, reference compound]: in the series on claudin-5 (hCMEC/D3 cells), the “GDNF-induced claudin-5 expression” value is given as “significantly suppressed” and the “US-CM-induced claudin-5 expression” value is recorded as “markedly reversed”. Besides, in the series on VE-cadherin, the “GDNF-induced VE-cadherin expression” value was “significantly suppressed” and the “US-CM-induced VE-cadherin expression” value is recorded as “markedly reversed”. For the same compound, the “US-CM-induced p-ERK” value in the series with p-ERK/ERK is listed as “markedly reversed”. In the series with ETS1, the “GDNF-induced nuclear ETS1 expression” value was “markedly attenuated” and the “GDNF-induced total ETS1 expression” value is reported as “markedly attenuated”.

Take “bFGF: basic fibroblast growth factor, recombinant protein”: the claudin-5 expression entry in the series with claudin-5 (setting [7]) is on record as “without affecting”. The VE-cadherin expression entry in the series with VE-cadherin (setting [7]) is reported as “without affecting”. For the same compound, the “EdU incorporation, EdU + fraction” value is reported as 21.1 in the series with hCMEC/D3 cells (bFGF 6 ng/mL), 28.3 with hCMEC/D3 cells (bFGF 20 ng/mL) and 31.0 in the series with hCMEC/D3 cells (bFGF 60 ng/mL). Besides, the “EdU incorporation, EdU − fraction” value was 78.9 in the series with hCMEC/D3 cells (bFGF 6 ng/mL), 71.7 in the series on hCMEC/D3 cells (bFGF 20 ng/mL) and 69.0 in the series with hCMEC/D3 cells (bFGF 60 ng/mL). Further, in the series on hCMEC/D3 cells (bFGF (6, 20, and 60 ng/ml) for 6 days, EdU incorporation and cell viability), the cell proliferation result is “increased cell proliferation”.
